According to doi:10.1101/2024.10.27.620470v1 (biorxiv, 2024):

Each compound was assayed against G3BP1NTF-2-GFP (Homo sapiens, UniProt Q13283) (assay: fluorescence plate PPI inhibition assay).
Format: biochemical

G3BP1NTF-2-GFP, sequence (Q13283 1-139): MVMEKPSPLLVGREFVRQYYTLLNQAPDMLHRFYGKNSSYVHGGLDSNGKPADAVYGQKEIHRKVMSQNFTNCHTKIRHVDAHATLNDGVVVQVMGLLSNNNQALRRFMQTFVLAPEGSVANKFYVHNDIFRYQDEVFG

SMILES	IC50
CC[C@H](NC(=O)c1c(C)c(-c2ccccc2)nc2ccccc12)c1ccccc1 [SB_222200]	13 ± 0.6 µM
CN1C[C@H](C(=O)N[C@]2(C)O[C@@]3(O)[C@@H]4CCCN4C(=O)[C@H](Cc4ccccc4)N3C2=O)C[C@@H]2c3cccc4[nH]cc(c34)C[C@H]21 [Dihydroergotamine]	13.2 ± 5.8 µM
CNC(=O)c1c(F)cccc1Nc1nc(Nc2cc3c(cc2OC)CCN3C(=O)CN(C)C)nc2[nH]ccc12 [GSK1838705A]	14.5 ± 4.9 µM
COc1ccc(Br)cc1S(=O)(=O)NC(=O)/C=C/c1ccccc1Cc1ccc2ccccc2c1 [L-798106]	11.6 ± 4.5 µM
O=C1NCN(c2ccccc2)C12CCN(CCCC(c1ccc(F)cc1)c1ccc(F)cc1)CC2 [Fluspirilene]	10.5 ± 1.8 µM
